Results published in ChEMBL document CHEMBL2203171, “The use of small molecule probes to study spatially separated stimulus-induced signaling pathways” (Bioorg Med Chem Lett, 2012).
The source made the active and inactive calls. No cut-off for these calls is given here.

How the values were obtained:
Format in all cases: cell-based
[1] = biological target: T1, Inhibitor of nuclear factor kappa-B kinase subunit beta (Mus musculus) (UniProt O88351); test: Inhibition of IKKbeta in C57BL/6 mouse BMDM cells assessed as inhibition of TNFalpha-induced IkappaBalpha degradation at 50 uM up to 90 mins by Western blot analysis
T1 sequence (whole entry): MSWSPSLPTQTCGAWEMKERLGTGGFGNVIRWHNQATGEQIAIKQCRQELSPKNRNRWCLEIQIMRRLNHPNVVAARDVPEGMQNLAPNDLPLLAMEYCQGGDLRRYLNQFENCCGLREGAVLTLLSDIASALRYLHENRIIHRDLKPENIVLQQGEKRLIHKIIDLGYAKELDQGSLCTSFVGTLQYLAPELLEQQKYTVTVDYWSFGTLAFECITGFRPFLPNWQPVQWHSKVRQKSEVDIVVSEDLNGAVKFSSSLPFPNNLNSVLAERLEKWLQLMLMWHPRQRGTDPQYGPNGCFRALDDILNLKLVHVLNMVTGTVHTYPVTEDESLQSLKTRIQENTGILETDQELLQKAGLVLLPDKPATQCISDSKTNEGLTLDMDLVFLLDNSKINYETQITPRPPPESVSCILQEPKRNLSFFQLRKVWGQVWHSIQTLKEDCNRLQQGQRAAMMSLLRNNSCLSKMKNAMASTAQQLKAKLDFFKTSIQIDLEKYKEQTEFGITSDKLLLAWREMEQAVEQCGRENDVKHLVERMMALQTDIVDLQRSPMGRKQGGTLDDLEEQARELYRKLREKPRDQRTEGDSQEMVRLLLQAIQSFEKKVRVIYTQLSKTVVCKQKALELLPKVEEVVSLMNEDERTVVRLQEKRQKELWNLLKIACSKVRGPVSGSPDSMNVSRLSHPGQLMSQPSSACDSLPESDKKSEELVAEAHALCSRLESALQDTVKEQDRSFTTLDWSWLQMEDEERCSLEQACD

[2] = biological target: T1, Inhibitor of nuclear factor kappa-B kinase subunit beta (Mus musculus); test: Inhibition of IKKbeta in C57BL/6 mouse BMDM cells assessed as inhibition of LPS-induced IkappaBalpha degradation at 50 uM up to 90 mins by Western blot analysis
[3] = biological target: T2, MAP kinase p38 (Mus musculus) (UniProt P47811+O08911+Q9WUI1+Q9Z1B7); test: Inhibition of MAPK p38 in C57BL/6 mouse BMDM cells assessed as inhibition of LPS-induced phosphorylation at 50 uM up to 90 mins by Western blot analysis
[4] = biological target: T1, Inhibitor of nuclear factor kappa-B kinase subunit beta (Mus musculus); test: Inhibition of IKKbeta in C57BL/6 mouse BMDM cells assessed as inhibition of LPS-induced IkappaBalpha phosphorylation at 50 uM up to 90 mins by Western blot analysis
[5] = biological target: T1, Inhibitor of nuclear factor kappa-B kinase subunit beta (Mus musculus); test: Inhibition of IKKbeta in C57BL/6 mouse BMDM cells assessed as inhibition of TNFalpha-induced IkappaBalpha phosphorylation at 50 uM up to 90 mins by Western blot analysis
[6] = biological target: T2, MAP kinase p38 (Mus musculus); test: Inhibition of MAPK p38 in C57BL/6 mouse BMDM cells assessed as inhibition of TNFalpha-induced phosphorylation at 50 uM up to 90 mins by Western blot analysis

| inhibition [1] | inhibition (active/not active) [2] | inhibition [3] | inhibition of IkappaBalpha phosphorylation (active/not active) [4] | inhibition [5] | inhibition [6] | Compound |
| --- | --- | --- | --- | --- | --- | --- |
| inactive | inactive | inactive | inactive | inactive | inactive | COc1ccc(C(=O)N(Cc2ccccn2)C(C(=O)NC(C)(C)C)c2ccc(-c3ccc(OC)cc3)cc2)cc1 (configuration not stated) |
| inactive | inactive | inactive | inactive | inactive | inactive | COc1ccc(-c2ccc(C(C(=O)NC(C)(C)C)N(C(=O)CCc3ccc(O)c(O)c3)C(C)(C)C)cc2)cc1 (configuration not stated) |
